Consider four molecules from US20190153024A1, “NOVEL SALTS AND POLYMORPHS OF SCY-078” (priority 2015, published 2019).

Values after ≈ are worked out from the molar mass of the structure shown. A value given as a limit tells only on which side of the number the result lay.

Format in all cases: physicochemical
Data set [1] in a line: Kinetic solubility of SCY-078 freebase (MeOH desolvate, amorphous freebase). To be noted: for Form: residual solid by XRPD; for kinetic solubility (in words): room temperature. How it is done:
Kinetic Solubility of SCY-078 Freebase: The kinetic solubility of SCY-078 MeOH desolvate and SCY-078 amorphous freebase was evaluated in SGF media, FaSSIF media, FeSSIF media, dextrose buffer (pH 5.5), phosphate buffer (pH 6.0), and phosphate buffer (pH 7.5) at room temperature. First, solid SCY-078 MeOH desolvate or SCY-078 amorphous freebase (˜15 mg) was weighed into a 4-mL vial. Then the relevant media (3.0 mL) was added and the suspensions were stirred on a rolling incubator (25 rpm) at room temperature for 1 hour, 4 hours, and 24 hours respectively. After stirring, 0.5 mL of suspension was centrifuged and filtered (0.45 μm). The residual solids were analyzed by XRPD, and the supernatant was measured by HPLC and pH meter.

A short description of data set [2]: Dynamic Vapor Sorption (DVS) water uptake. How it is done: Dynamic Vapor Sorption (DVS)—The term “DVS” means the procedure described in below. The relative humidity at 25° C. was calibrated against deliquescence point of LiCl, Mg(NO3)2 and KCl.
The DVS of SCY-078 salts were tested according to the above method, using a 10-20 mg sample size. The DVS was measured using a Surface Measurement Systems (SMS) DVS Intrinsic.

Data set [3] is described as follows: Approximate solubility in solvents at room temperature. To be noted: 25 °C, thermodynamic from solid. How it is done:
Approximate solubility of SCY-078 salts—The term “approximate solubility” with respect to SCY-078 salts means the procedure described in this paragraph. To conduct each experiment, a sample of a SCY-078 salt (˜2 mg) was added into a 3-mL glass vial. Then a solvent was added step-wise (100 μL per step) into the vials until the solids were dissolved or a total volume of 2 mL was reached.
First, MeOH desolvate (˜2 mg) was added to a 3-mL glass vial. Then the corresponding solvent was added step wise (100 μL) until the solution was visually clear or a total volume of 2 mL was reached.

As for `CC(C)[C@@H](C)[C@@]1(C)CC[C@]2(C)[C@H]3CC[C@@H]4[C@@]5(COC[C@]4(C)[C@@H](OC[C@](C)(N)C(C)(C)C)[C@H](n4ncnc4-c4ccncc4)C5)C3=CC[C@@]2(C)[C@@H]1C(=O)O` [Desolv.], the Form entry in data set [1] (FaSSIF, 1 hour) is recorded as “NF 1”; in data set [1] (FaSSIF, 4 hours), “NF 1”; in data set [1] (FaSSIF, 24 hours) it was “NF 1”; in data set [1] (FeSSIF, 1 hour) it was “NF 1”; in data set [1] (FeSSIF, 4 hours) it was “NF 1”; in data set [1] (FeSSIF, 24 hours), “NF 1”. Moreover, the Form entry in data set [1] (pH 5.5 buffer, 4 hours) was “NF 2”; in data set [1] (pH 5.5 buffer, 24 hours) it was “NF 2”; in data set [1] (pH 6.0 buffer, 4 hours), “NF 1”; in data set [1] (pH 6.0 buffer, 24 hours), “NF 3”; in data set [1] (pH 7.5 buffer, 4 hours) it was “Desolv”; in data set [1] (pH 7.5 buffer, 24 hours), “Desolv”.

Take `CC(C)[C@@H](C)[C@@]1(C)CC[C@]2(C)[C@H]3CC[C@@H]4[C@@]5(COC[C@]4(C)[C@@H](OC[C@](C)(N)C(C)(C)C)[C@H](n4ncnc4-c4ccncc4)C5)C3=CC[C@@]2(C)[C@@H]1C(=O)O` [SCY-078 MeOH desolvate]: the “kinetic solubility (in words)” value was “only sparingly soluble” in data set [1] (FaSSIF and pH 5.5, pH 6.0, pH 7.5 buffers); “high solubility” in data set [1] (SGF and FeSSIF). The “solid form change during solubility measurement” value in data set [1] (FeSSIF, FaSSIF, pH 5.5 and 6.0 buffers) is “Solid form change was observed”.

In the case of `CC(C)[C@@H](C)[C@@]1(C)CC[C@]2(C)[C@H]3CC[C@@H]4[C@@]5(COC[C@]4(C)[C@@H](OC[C@](C)(N)C(C)(C)C)[C@H](n4ncnc4-c4ccncc4)C5)C3=CC[C@@]2(C)[C@@H]1C(=O)O` [SCY-078 amorphous freebase], in data set [2] (25° C., 80% RH), the “water uptake (DVS)” value was around 4.8%. The “solid form by XRPD after DVS” value in data set [2] (after DVS experiment) is listed as “no form change”.

As a reminder, the solubility is the concentration that dissolves in the medium under given conditions. On to `CC(C)[C@@H](C)[C@@]1(C)CC[C@]2(C)[C@H]3CC[C@@H]4[C@@]5(COC[C@]4(C)[C@@H](OC[C@](C)(N)C(C)(C)C)[C@H](n4ncnc4-c4ccncc4)C5)C3=CC[C@@]2(C)[C@@H]1C(=O)O` [SCY-078, (1S,4aR,6aS,7R,8R,10aR,10bR,12aR,14R,15R)-15-[[(2R)-2-amino-2,3,3-trimethylbutyl]oxy]-8-[(1R)-1,2-dimethylpropyl]-14-[5-(4-pyridinyl)-1H-1,2,4-triazol-1-yl]-1,6,6a,7,8,9,10,10a,10b,11,12,12a-dodecahydro-1,6a,8,10a-tetramethyl-4H-4a-propano-2H -phenanthro[1,2-c]pyran-7-carboxylic acid], for which the solubility was above 37 mg/mL in data set [3] (organic solvent or mixture, 1,4-Dioxane, RT); above 25 mg/mL in data set [3] (organic solvent or mixture, 2-MeTHF, RT); above 25 mg/mL in data set [3] (organic solvent or mixture, Acetic Acid, RT); 8.3 to 12.5 mg/mL (≈ 11.4 to 17.1 mM) in data set [3] (organic solvent or mixture, Acetone, RT); above 33 mg/mL in data set [3] (organic solvent or mixture, CHCl3, RT); above 40 mg/mL in data set [3] (organic solvent or mixture, DMA, RT). The solubility in data set [3] (organic solvent or mixture, DMSO, RT) is above 32 mg/mL; in data set [3] (organic solvent or mixture, EtOAc, RT), above 23 mg/mL; in data set [3] (organic solvent or mixture, EtOH, RT), 2.6 to 3 mg/mL (≈ 3.56 to 4.11 mM); in data set [3] (organic solvent or mixture, Heptane, RT), below 2.2 mg/mL; in data set [3] (organic solvent or mixture, IPA, RT), 7 to 11 mg/mL (≈ 9.59 to 15.1 mM); in data set [3] (organic solvent or mixture, MIBK, RT) it was above 29 mg/mL. The solubility is above 23 mg/mL in data set [3] (organic solvent or mixture, MTBE, RT); 5.4 to 6.3 mg/mL (≈ 7.4 to 8.63 mM) in data set [3] (organic solvent or mixture, MeOH, RT); above 45 mg/mL in data set [3] (organic solvent or mixture, NMP, RT); above 23 mg/mL in data set [3] (organic solvent or mixture, THF, RT); 6.8 to 8.5 mg/mL (≈ 9.31 to 11.6 mM) in data set [3] (organic solvent or mixture, Toluene, RT); 10.5 to 21 mg/mL (≈ 14.4 to 28.8 mM) in data set [3] (organic solvent or mixture, iPrOAc, RT). Further, the solubility in data set [3] (acetonitrile (ACN), organic solvent or mixture, ACN, RT) was 2.6 to 2.9 mg/mL (≈ 3.56 to 3.97 mM); in data set [3] (water (H2O), water, H2O, RT), below 1.9 mg/mL.
